Measurements taken from US8603737B2, “Methods for identifying HCV protease inhibitors” (priority 2008, dated 2013).
pIC50: −log10 of the molar value.

Columns and labels:
Format in all cases: biochemical
[1] = molecular target: T1, wild type HCV NS3/4A 1b protease enzyme (Hepatitis C virus genotype 1b, UniProt P26663); assay: HCV protease FRET assay, wild type NS3/4A 1b enzyme
T1 construct: 10× stocks of NS3/4A protease enzyme from Bioenza; purchased Bioenza (Mountain View, Calif.)
Excerpt: Method B: HCV Protease FRET Assay for Wild Type and Mutated NS3/4A 1b Enzymes (IC50)
A quantitative, fluorescence resonance energy transfer (FRET)-based methodology was employed to identify HCV NS3/4A protease inhibitors. The assay employed a synthetic FRET peptide, derived from the HCV NS5A/5B cleavage site, with the HCV protease to evaluate the activity of compounds against the protease by monitoring the cleavage activity of the complex. A synthetic peptide which encompasses the NS5A-5B junction (NH2-[…]-COOH) (SEQ ID NO: 78) was labeled with Dabcyl and Edans at N- and C-termini, respectively (Invitrogen, Carlsbad, Calif.). Fluorescence measurement was used to estimate the IC50 value of the test compound. […] Upon cleavage of the FRET peptide by HCV NS3/4A proteinase complex (100 ng/mL), the fluorescence is recovered and can be continuously monitored at excitation/emission=340/490 nm.
Assay buffer: 2% CHAPS, 50 mM Tris pH 7.5, 50% glycerol, 2 uM M-2235 (Bachem) substrate. In a 50 μl reaction, add 49 μl assay buffer, 1 μl (1 U) HCV serine protease (Bioenza). Incubate 20 minutes at room temperature. The plate was read at either 350/460 nm (excitation/emission) on a fluorescent micro-plate reader or monitored at one-minute intervals to achieve the kinetic curve.
(§1) HCV Protease FRET Assay for WT and Mutated NS3/4A 1b Enzymes (IC50 —APP)
The following protocol was used to generate “apparent” IC50 (IC50—APP)) values as depicted in Table 3, below. Without wishing to be bound by any particular theory, it is believed that IC50—APP, contrasted with IC50 values, may provide a more useful indication of time-dependent inhibition, and are thus more representative of binding affinity. […] Protease reactions were immediately started after enzyme addition with the addition of 45 μL of the FRET substrate and monitored for 60-90 minutes at λex485/λem520 in a Synergy^4 plate reader from BioTek (Winooski, Vt.). […]

[2] = molecular target: T2, A156S mutant of the HCV NS3/4A 1b protease enzyme (Hepatitis C virus genotype 1b, UniProt P26663, A1182S); assay: HCV protease FRET assay, A156S mutant; details: read-out: Inhibition, HCV A156S (IC50)
T2 construct: 10× stocks of NS3/4A protease enzyme from Bioenza; purchased Bioenza (Mountain View, Calif.)
Protocol: (§2) HCV Protease FRET Assay for Mutated NS3/4A 1b Enzymes
(§3) The protocol is a modified FRET-based assay (v—02) from In Vitro Resistance Studies of HCV Serine Protease Inhibitors, 2004, JBC, vol. 279, No. 17, pp 17508-17514. Inherent potency of compounds was assessed against A156S, A156T, D168A, and D168V mutants of the HCV NS3/4A 1b protease enzyme as follows: […]
(§4) 10× stocks of NS3/4A protease enzyme from Bioenza (Mountain View, Calif.) and 1.13×5-FAM/QXL™520 FRET peptide substrate from Anaspec (San Jose, Calif.) were prepared in 50 mM HEPES, pH 7.8, 100 mM NaCl, 5 mM DTT and 20% glycerol. 5 μL of each enzyme were pre-incubated in a Corning (#3573) 384-well, black, non-treated microtiter plate (Corning, N.Y.) for 30 min at 25° C. with a 0.5 μL volume of 50% DMSO and serially diluted compounds prepared in 50% DMSO. Protease reactions were started with the addition of 45 μL of the FRET substrate and monitored for 120 minutes at λex487/λem514 through Quad^4 monochromoters in a Synergy^4 plate reader from BioTek (Winooski, Vt.). At the conclusion of each assay, progress curves from each well were examined for linear reaction kinetics and fit statistics (R^2, absolute sum of squares). Initial velocity (0 minutes to 30+ minutes) from each reaction was determined from the slope of a plot of relative fluorescence units vs time (minutes) and then plotted against inhibitor concentration to estimate IC50 from log[Inhibitor] vs Response, Variable Slope model in GraphPad Prism from GraphPad Software (San Diego, Calif.). […]
(§5) The compound numbers correspond to the compound numbers in Table 3. Compounds having an activity designated as “A” provided an IC50≦10 nM; compounds having an activity designated as “B” provided an IC50>10 nM and ≦100 nM; compounds having an activity designated as “C” provided an IC50>100 nM and ≦1000 nM; and compounds having an activity designated as “D” provided an IC50>1000 nM and <10,000 nM.

[3] = molecular target: T3, D168A mutant of the HCV NS3/4A 1b protease enzyme (Hepatitis C virus genotype 1b, UniProt P26663, D1194A); assay: HCV protease FRET assay, D168A mutant; details: read-out: Inhibition, HCV D168A (IC50)
T3 construct: 10× stocks of NS3/4A protease enzyme from Bioenza; purchased Bioenza (Mountain View, Calif.)
Protocol: as §2, §3, §4, §5

[4] = molecular target: T4, R155K mutant of the HCV NS3/4A 1b protease enzyme (Hepatitis C virus genotype 1b, UniProt P26663, R1181K); assay: HCV protease FRET assay, R155K mutant; details: read-out: Inhibition, HCV R155K (IC50)
T4 construct: 10× stocks of NS3/4A protease enzyme from Bioenza; purchased Bioenza (Mountain View, Calif.)
Excerpt: as §1
The following protocol was used to generate “apparent” IC50 (IC50—APP)) values as depicted in Table 3, below. Without wishing to be bound by any particular theory, it is believed that IC50—APP, contrasted with IC50 values, may provide a more useful indication of time-dependent inhibition, and are thus more representative of binding affinity. The protocol is a modified FRET-based assay (v—03) developed to evaluate compound potency, rank-order and resistance profiles against wild type and C159S, A156S, A156T, D168A, D168V, R155K mutants of the HCV NS3/4A 1b protease enzyme as follows: 10× stocks of NS3/4A protease enzyme from Bioenza (Mountain View, Calif.) and 1.13×5-FAM/QXL™520 FRET peptide substrate from Anaspec (San Jose, Calif.) were prepared in 50 mM Tris-HCl, pH 7.5, 5 mM DTT, 2% CHAPS and 20% glycerol. 5 μL of each enzyme were added to Corning (#3575) 384-well, black, microtiter plates (Corning, N.Y.) after spotting a 0.5 μL volume of 50% DMSO and serially diluted compounds prepared in 50% DMSO. Protease reactions were immediately started after enzyme addition with the addition of 45 μL of the FRET substrate and monitored for 60-90 minutes at λex485/λem520 in a Synergy^4 plate reader from BioTek (Winooski, Vt.). […]

Structure (SMILES)	pIC50 [1]	pIC50 [2]	pIC50 [3]	pIC50 [4]
C=C[C@@H]1C[C@]1(NC(=O)[C@@H]1C[C@@H](Oc2cc(-c3ccccc3)nc3cc(OC)ccc23)CN1C(=O)C(NC(=O)OC(C)(C)C)[C@@H](C)OC(=O)/C=C/C)C(=O)NS(=O)(=O)C1CC1 (some centres unmarked) [Compound 3]	> 8.00	> 8.00	6.00 to 7.00	–
C=CC(=O)N(C)C[C@H](NC(=O)OC(C)(C)C)C(=O)N1C[C@H](OC(=O)N2Cc3cccc(F)c3C2)C[C@H]1C(=O)N[C@]1(C(=O)NS(=O)(=O)C2CC2)C[C@H]1C=C [Compound 4]	> 8.00	> 8.00	7.00 to 8.00	7.00 to 8.00
CC(C)(C)OC(=O)NC1CN(C(=O)CCl)CCC/C=C\[C@@H]2C[C@@]2(C(=O)NS(=O)(=O)C2CC2)NC(=O)[C@@H]2C[C@@H](OC(=O)N3Cc4cccc(F)c4C3)CN2C1=O (some centres unmarked) [Compound 8]	> 8.00	> 8.00	7.00 to 8.00	7.00 to 8.00
